Test results: US20070254863A1 (priority 2006, published 2007)
Read-outs that look alike come from different tables or passages of the source.

Legend:
[1] = test system: rat perifused pancreatic islets; test: KATP opening effects through insulin secretion in rat perifused pancreatic islets; assay type: cell-based; conditions: 11 mM glucose; for % Inhibition 0-30 (insulin secretion): 0-30 minutes; for % Inhibition 30-60 (insulin secretion): 30-60 minutes
Protocol: Determination of the KATP Opening Effects of Compounds Through Insulin Secretion in Rat Perifused Pancreatic Islets
The animals were maintained on a 12 h light-dark cycle (lights on 06.00-18.00 h) with free access to standard rodent diet (B&K Universal Ltd standard rat and mouse diet (BK 001P), Beekay Feeds, B&K Universal Ltd, Hull, East Riding of Yorkshire) and tap water. The rats were conditioned to this environment for at least one week before experimentation.
Experimental procedures: After the rats were sacrificed, the branch of the bile duct leading to the liver and the duodenal end of the duct in the pancreas were clamped and the pancreas distended by injection of ice-cold 0.9 mg/ml collagenase solution into the bile duct. […] Following incubation, 10 ml of cold buffer was added and the suspension shaken vigorously by hand for 1 min. The islets were allowed to settle for 5 min on ice and washed three times using ice-cold buffer. Well-formed and good-sized islets from three rats were hand-picked (under a low power microscope) and pooled and a final selection of islet transferred to the perifusion apparatus.
Two experiments were performed in parallel in two identical, independent sets of perifusion apparatus each consisting of sufficient number of chambers. Each chamber was loaded with 20 hand-picked islets. Islets were perifused for an initial 30 min period in media containing 4 mM glucose. Perifusate was then collected at 2 min intervals for the remainder of the experiment. […] Perifusate fractions were stored at −75° C. until required for insulin assay. Insulin content of fractions were assayed using a 96-well ELISA assay (Mercodia). Initial insulin assays were performed in triplicate on three pooled fractions from each chamber.
Data were initially expressed as a simple mean of the three experiments for insulin secretion (pg/islet/min) and multiple t-tests (against the corresponding vehicle time period) used to determine potential significant effects of treatments. Alternatively, data were also calculated as a % vehicle effect for each experimental day. This latter approach was deemed to be the more powerful analysis as it corrected for the day to day variation in insulin release from the islets.

[2] = target: T1, hamster SUR1 (Cricetus cricetus, UniProt Q09427); test: In vitro binding affinity to rodent KATP channels: SUR1 ([3H]glibenclamide displacement, COS cell membranes); conditions: hamster SUR1 in COS cell membranes; read-out: Affinity to SUR 1 (converted)
T1 construct: expressed in transfected cells; host or cells: COS-1 cells, transient (pcDNA vector)
T1 sequence (Q09427 whole entry): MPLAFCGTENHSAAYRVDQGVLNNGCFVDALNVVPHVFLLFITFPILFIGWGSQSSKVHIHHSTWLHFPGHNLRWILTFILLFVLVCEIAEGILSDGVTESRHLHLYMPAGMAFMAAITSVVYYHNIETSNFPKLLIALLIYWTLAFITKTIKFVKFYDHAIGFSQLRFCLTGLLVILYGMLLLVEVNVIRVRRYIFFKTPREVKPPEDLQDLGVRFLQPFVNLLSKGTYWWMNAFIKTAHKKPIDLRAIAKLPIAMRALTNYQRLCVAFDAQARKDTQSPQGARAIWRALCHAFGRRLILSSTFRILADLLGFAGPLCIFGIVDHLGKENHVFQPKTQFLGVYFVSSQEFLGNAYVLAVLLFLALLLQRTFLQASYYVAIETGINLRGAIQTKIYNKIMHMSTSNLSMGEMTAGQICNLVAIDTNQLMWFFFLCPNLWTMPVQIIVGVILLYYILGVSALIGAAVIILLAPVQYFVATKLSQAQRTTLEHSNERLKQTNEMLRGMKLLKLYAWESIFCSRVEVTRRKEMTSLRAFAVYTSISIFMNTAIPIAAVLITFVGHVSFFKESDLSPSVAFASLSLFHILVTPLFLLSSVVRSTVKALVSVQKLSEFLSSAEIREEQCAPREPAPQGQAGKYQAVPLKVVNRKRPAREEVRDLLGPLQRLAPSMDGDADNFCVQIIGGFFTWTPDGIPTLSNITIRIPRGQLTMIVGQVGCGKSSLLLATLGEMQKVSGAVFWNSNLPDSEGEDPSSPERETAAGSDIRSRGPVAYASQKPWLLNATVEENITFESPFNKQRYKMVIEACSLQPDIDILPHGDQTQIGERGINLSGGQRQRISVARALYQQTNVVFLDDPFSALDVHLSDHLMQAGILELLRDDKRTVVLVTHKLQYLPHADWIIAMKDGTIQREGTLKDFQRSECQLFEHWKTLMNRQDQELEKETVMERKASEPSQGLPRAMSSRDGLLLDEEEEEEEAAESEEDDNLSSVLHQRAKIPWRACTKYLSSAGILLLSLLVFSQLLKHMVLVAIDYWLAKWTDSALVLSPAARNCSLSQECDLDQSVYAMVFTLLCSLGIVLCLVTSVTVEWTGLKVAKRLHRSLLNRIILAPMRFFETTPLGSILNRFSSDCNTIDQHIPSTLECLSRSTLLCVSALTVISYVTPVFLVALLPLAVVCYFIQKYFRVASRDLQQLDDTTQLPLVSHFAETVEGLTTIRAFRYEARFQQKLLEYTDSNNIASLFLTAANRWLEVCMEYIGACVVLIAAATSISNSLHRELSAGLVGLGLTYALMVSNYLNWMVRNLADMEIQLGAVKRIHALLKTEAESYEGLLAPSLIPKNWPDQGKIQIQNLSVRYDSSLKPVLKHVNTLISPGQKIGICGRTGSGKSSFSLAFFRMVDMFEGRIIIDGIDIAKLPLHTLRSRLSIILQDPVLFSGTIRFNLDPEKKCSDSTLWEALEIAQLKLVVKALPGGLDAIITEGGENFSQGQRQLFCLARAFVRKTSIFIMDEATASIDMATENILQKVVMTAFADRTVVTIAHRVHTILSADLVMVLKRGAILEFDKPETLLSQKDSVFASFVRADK

[3] = target: rat SUR2A (Rattus norvegicus, UniProt Q63563); test: In vitro binding affinity to rodent KATP channels: SUR2A ([3H]P1075 / [3H]glibenclamide displacement, COS cell membranes)
rat SUR2A, sequence (Q63563 whole entry): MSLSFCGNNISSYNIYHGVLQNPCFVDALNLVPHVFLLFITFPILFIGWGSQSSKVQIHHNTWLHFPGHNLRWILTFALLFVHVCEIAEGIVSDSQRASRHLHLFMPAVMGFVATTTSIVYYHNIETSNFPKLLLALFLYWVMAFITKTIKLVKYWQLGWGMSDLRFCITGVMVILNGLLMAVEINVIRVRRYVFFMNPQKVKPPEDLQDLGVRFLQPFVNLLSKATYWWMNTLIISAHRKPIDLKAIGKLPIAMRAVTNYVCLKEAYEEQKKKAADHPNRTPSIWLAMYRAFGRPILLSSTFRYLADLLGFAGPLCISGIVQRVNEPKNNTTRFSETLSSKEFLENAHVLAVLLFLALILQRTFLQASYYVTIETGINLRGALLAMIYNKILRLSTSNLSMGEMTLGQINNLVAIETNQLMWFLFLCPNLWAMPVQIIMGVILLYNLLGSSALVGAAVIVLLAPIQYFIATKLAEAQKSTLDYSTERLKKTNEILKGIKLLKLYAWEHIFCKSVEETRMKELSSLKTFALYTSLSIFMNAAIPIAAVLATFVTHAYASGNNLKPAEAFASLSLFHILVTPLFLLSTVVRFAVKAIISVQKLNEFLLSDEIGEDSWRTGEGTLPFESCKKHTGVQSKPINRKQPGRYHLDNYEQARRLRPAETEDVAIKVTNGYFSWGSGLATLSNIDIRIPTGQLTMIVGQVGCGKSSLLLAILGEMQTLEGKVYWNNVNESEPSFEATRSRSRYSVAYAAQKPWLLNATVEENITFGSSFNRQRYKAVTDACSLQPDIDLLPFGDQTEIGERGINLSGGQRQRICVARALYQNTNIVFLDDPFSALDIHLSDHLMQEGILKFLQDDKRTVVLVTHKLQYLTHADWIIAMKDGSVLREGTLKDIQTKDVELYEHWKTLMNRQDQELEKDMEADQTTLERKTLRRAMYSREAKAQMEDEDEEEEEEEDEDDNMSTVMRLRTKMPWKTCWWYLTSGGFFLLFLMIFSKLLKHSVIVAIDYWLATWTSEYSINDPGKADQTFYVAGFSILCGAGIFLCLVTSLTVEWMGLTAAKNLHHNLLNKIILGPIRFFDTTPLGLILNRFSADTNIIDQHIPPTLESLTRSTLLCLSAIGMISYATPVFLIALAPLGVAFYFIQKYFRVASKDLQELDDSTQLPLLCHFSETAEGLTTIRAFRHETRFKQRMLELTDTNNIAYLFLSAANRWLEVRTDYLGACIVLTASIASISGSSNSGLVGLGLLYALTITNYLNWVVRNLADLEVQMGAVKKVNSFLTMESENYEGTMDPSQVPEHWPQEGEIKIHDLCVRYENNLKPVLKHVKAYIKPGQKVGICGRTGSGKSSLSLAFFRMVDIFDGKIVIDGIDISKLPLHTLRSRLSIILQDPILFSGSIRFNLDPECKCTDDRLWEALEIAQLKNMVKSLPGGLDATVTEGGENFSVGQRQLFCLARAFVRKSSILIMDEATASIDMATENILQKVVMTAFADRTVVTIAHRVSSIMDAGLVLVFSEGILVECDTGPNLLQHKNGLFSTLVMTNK
How it was run: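 COS-cell membranes transiently expressing rat SUR2A incubated 1 h at room temperature in 50 mM Tris pH 7.4, ~0.7 mM free Mg2+, with 3 nM [3H]P1075 (wild type) or [3H]glibenclamide (SUR2AY1205S); filtration read-out. Ki from IC50, reported as pKi; 9-15 concentrations per curve.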

[4] = target: human cannabinoid CB2 receptor (Homo sapiens, UniProt P34972); test: biochemical; assay type: binding
human cannabinoid CB2 receptor, sequence (P34972 whole entry): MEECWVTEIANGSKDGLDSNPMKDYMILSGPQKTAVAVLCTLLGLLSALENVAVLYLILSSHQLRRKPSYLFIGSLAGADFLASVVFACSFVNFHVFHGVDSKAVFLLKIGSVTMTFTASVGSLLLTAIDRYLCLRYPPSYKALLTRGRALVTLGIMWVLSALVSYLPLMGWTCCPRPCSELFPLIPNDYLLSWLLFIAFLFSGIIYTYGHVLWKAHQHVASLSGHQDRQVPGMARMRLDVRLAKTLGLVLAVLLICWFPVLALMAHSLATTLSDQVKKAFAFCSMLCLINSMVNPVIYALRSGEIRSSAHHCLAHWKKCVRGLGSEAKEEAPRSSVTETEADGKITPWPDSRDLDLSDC
Protocol: 3. In Vitro Binding Affinity of the Test Compounds to CB2 Receptors
After incubation of a freshly prepared cell membrane preparation with the [^3H]-ligand, with or without the addition of the compounds described herein, separation of bound and free ligand is performed by filtration over glass-fiber filters. Radioactivity on the filter is measured by liquid scintillation counting.

[5] = cloned human CB2 receptor expressed in CHO cells, read-out: Affinity to CB2 (converted)

| Compound | % Inhibition 0-30 (insulin secretion) [1] [%] | % Inhibition 30-60 (insulin secretion) [1] [%] | Ki [2] [nM] | pKi [3] | Ki [4] [nM] | Ki [4, 5] [nM] |
| --- | --- | --- | --- | --- | --- | --- |
| CN/C(=N\S(=O)(=O)c1ccc(Cl)cc1)N1C[C@@H](c2ccccc2)C(c2ccc(Cl)cc2)=N1 (stereo in doubt) [4-Chloro-N-{[3-(4-chloro-phenyl)-4-phenyl-4,5-dihydro-pyrazol-1-yl]-methylamino-methylene}-benzenesulfonamide] | 59 | 25 |  |  |  |  |
| CNC(=NS(=O)(=O)N1CCCCC1)C1=NN(c2ccc(Cl)cc2)C(c2ccccc2)C1 (stereo not drawn) [Piperidine-1-sulfonic acid [1-(4-chloro-phenyl)-5-phenyl-4,5-dihydro-1H-pyrazol-3-yl]-methylamino-methyleneamide] | 84 | 47 | 794 | 4.5 |  |  |
| CCc1c(C(=O)NN2CCCCC2)nc(-c2ccccc2Cl)n1-c1ccc(Cl)cc1 [1-(4-Chloro-phenyl)-2-(2-chloro-phenyl)-5-ethyl-1H-imidazole-4-carboxylic acid piperidin-1-ylamide, reference compound] | 59 | 45 |  | 4.8 | 1000 |  |
| CN1CCCCC1Cn1cc(C(=O)c2cc([N+](=O)[O-])ccc2I)c2ccccc21 (stereo not drawn) [AM-1241, (2-Iodo-5-nitro-phenyl)-[1-(1-methyl-piperidin-2-ylmethyl)-1H-indol-3-yl]-methanone, reference compound] | 97 | 74 | 3980 |  |  | 15.8 |
| CN/C(=N\S(=O)(=O)c1ccc(C(F)(F)F)cc1)N1CC(c2cccnc2)C(c2ccc(Cl)cc2)=N1 (stereo not drawn) [N-([3-(4-Chloro-phenyl)-4-pyridin-3-yl-4,5-dihydro-pyrazol-1-yl]-methylamino-methylene}-4-trifluoromethyl-benzenesulfonamide] | 58 | 31 | 501 | 4.9 |  |  |
| CSc1c(C(=O)NN2CCCCC2)nc(-c2ccccc2Cl)n1-c1ccc(Cl)cc1 [1-(4-Chloro-phenyl)-2-(2-chloro-phenyl)-5-methylsulfanyl-1H-imidazole-4-carboxylic acid piperidin-1-ylamide] | 56 | 36 | 6.31 |  |  | 6310 |
| CON/C(=N\S(=O)(=O)c1ccc(Cl)cc1)N1C[C@H](c2cccc(F)c2)C(c2ccc(Cl)cc2)=N1 (stereo in doubt) [4-Chloro-N-{[3-(4-chloro-phenyl)-4-(3-fluoro-phenyl)-4,5-dihydro-pyrazol-1-yl]-methoxyamino-methylene}-benzenesulfonamide] | 90 | 95 |  |  |  |  |
| CN/C(=N\S(=O)(=O)c1ccc(Cl)cc1)N1C[C@H](c2ccccc2)C(c2ccc(Cl)cc2)=N1 | 42 | 22 | 501 |  |  |  |
| Cc1c(C(=O)c2cccc3ccccc23)c2cccc3c2n1[C@H](CN1CCOCC1)CO3 [drawing 112, (2-Methyl-3-morpholin-4-ylmethyl-3,4-dihydro-5-oxa-2a-azacenaphthylen-1-yl)-naphthalen-1-yl-methanone, reference compound] | 69 | 40 |  |  |  |  |
| CN/C(=N\S(=O)(=O)N1CCOCC1)N1CC(c2ccccc2)C(c2ccc(Cl)cc2)=N1 (stereo not drawn) [drawing 118, Morpholine-4-sulfonic acid [3-(4-chloro-phenyl)-4-phenyl-4,5-dihydro-pyrazol-1-yl]-methylamino-methyleneamide] | 83 | 91 |  |  |  |  |
| Cc1c(C(=O)NN2CCCCC2)nn(-c2ccc(Cl)cc2Cl)c1-c1ccc(Cl)cc1 [Rimonabant, 5-(4-Chloro-phenyl)-1-(2,4-dichloro-phenyl)-4-methyl-1H-pyrazole-3-carboxylic acid piperidin-1-ylamide, reference compound] | 22 | 18 | 5010 |  |  |  |
| CCCCCCC(C)(C)c1ccc([C@@H]2C[C@H](O)CC[C@H]2CCCO)c(O)c1 (stereo in doubt) [CP55940, 5-(1,1-Dimethyl-heptyl)-2-[5-hydroxy-2-(3-hydroxy-propyl)-cyclohexyl]-phenol, reference compound] | 91 | 56 | 5010 |  |  |  |
| CN/C(=N\S(=O)(=O)N(C)C)N1CC(c2cccc(F)c2)C(c2ccc(Cl)cc2)=N1 (stereo not drawn) [N-{[3-(4-Chloro-phenyl)-4-(3-fluoro-phenyl)-4,5-dihydro-pyrazol-1-yl]-methylamino-methylene}-N,N-dimethyl-sulfonamide] | 72 | 77 | 100 | 5.3 |  |  |
| CN(C)CCNC(=NS(=O)(=O)N1CCCCC1)N1CC(c2ccccc2)C(c2ccc(Cl)cc2)=N1 (stereo not drawn) [Piperidine-1-sulfonic acid [3-(4-chloro-phenyl)-4-phenyl-4,5-dihydro-pyrazol-1-yl]-(2-dimethylamino-ethylamino)-methyleneamide] | 71 | 64 | 100000 | 4.0 |  |  |
| Cc1c(C(=O)c2cccc3ccccc23)c2cccc3c2n1[C@H](CN1CCOCC1)CO3 [R(+)-WIN55212-2, (2-Methyl-3-morpholin-4-ylmethyl-3,4-dihydro-5-oxa-2a-azacenaphthylen-1-yl)-naphthalen-1-yl-methanone, reference compound] | 80 | 35 | 39800 |  |  |  |
